The source of these data is patent US20230143604A1, “QW DOSING OF GIP RECEPTOR AGONIST PEPTIDE COMPOUNDS AND USES THEREOF” (TAKEDA PHARMACEUTICAL COMPANY LIMITED, priority 2020, published 2023).

A short description of this series: physchem. The method in brief: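 Solubility at pH 7.4 determined by stepwise addition of 200 mM phosphate buffer in 100 μL increments to 3 mg peptide, mixing briefly each time, until no insoluble material remained, then measured by liquid chromatography.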

Starred links: 1 amine or outer side, 2 acyl side, 3 side chain; linkers in the order of their positions; H or OH if unused. Non-standard residues stand in square brackets, D forms with d. Residues, ends and D or L forms follow the SMILES beside them. Groups on a side chain read outwards from the residue. *: point of attachment. C18 diacid = O=C(O)CCCCCCCCCCCCCCCCC(=O)*; C17 diacid = O=C(O)CCCCCCCCCCCCCCCC(=O)*; γGlu = O=C(O)[C@H](CCC(=O)[*:2])N[*:1]; NMeY = CN[C@@H](Cc1ccc(O)cc1)C(=O)O; AEEA = NCCOCCOCC(=O)O; Aib = CC(C)(N)C(=O)O

With `CC[C@H](C)[C@H](NC(=O)[C@H](CO)NC(=O)[C@H](Cc1ccc(O)cc1)NC(=O)[C@H](CC(=O)O)NC(=O)[C@H](CO)NC(=O)[C@@H](NC(=O)[C@H](Cc1ccccc1)NC(=O)[C@@H](NC(=O)CNC(=O)[C@H](CCC(=O)O)NC(=O)C(C)(C)NC(=O)[C@H](Cc1ccc(O)cc1)NC)[C@@H](C)O)[C@@H](C)CC)C(=O)N[C@@H](C)C(=O)N[C@@H](CC(C)C)C(=O)N[C@@H](CC(=O)O)C(=O)N[C@@H](CCCNC(=N)N)C(=O)NC(C)(C)C(=O)N[C@@H](C)C(=O)N[C@@H](CCC(N)=O)C(=O)NC(C)(C)C(=O)N[C@@H](CC(=O)O)C(=O)N[C@@H](Cc1ccccc1)C(=O)N[C@H](C(=O)N[C@@H](CC(N)=O)C(=O)N[C@@H](Cc1c[nH]c2ccccc12)C(=O)N[C@@H](CC(C)C)C(=O)N[C@@H](CC(C)C)C(=O)N[C@@H](C)C(=O)N[C@@H](CCCCNC(=O)COCCOCCNC(=O)COCCOCCNC(=O)CC[C@H](NC(=O)CC[C@H](NC(=O)CCCCCCCCCCCCCCCCC(=O)O)C(=O)O)C(=O)O)C(=O)N[C@@H](CCCNC(=N)N)C(=O)NCC(=O)O)C(C)C` [Compound 56] (H-[NMeY][Aib]EGTFISDYSIALDR[Aib]AQ[Aib]DFVNWLLAK([AEEA-AEEA-γGlu-γGlu-C18 diacid])RG-OH), the solubility (in general, the concentration that dissolves in the medium under given conditions) is no less than 15 mg/mL (pH 7.4) and no less than 30 mg/mL (pH 7.4, aqueous buffer).

Turning to `CC[C@H](C)[C@H](NC(=O)[C@H](CO)NC(=O)[C@H](Cc1ccc(O)cc1)NC(=O)[C@H](CC(=O)O)NC(=O)[C@H](CO)NC(=O)[C@@H](NC(=O)[C@H](Cc1ccccc1)NC(=O)[C@@H](NC(=O)CNC(=O)[C@H](CCC(=O)O)NC(=O)C(C)(C)NC(=O)[C@@H](N)Cc1ccc(O)cc1)[C@@H](C)O)[C@@H](C)CC)C(=O)N[C@@H](C)C(=O)N[C@@H](CC(C)C)C(=O)N[C@@H](CC(=O)O)C(=O)N[C@@H](CCCCN)C(=O)NC(C)(C)C(=O)N[C@@H](CCCCNC(=O)COCCOCCNC(=O)COCCOCCNC(=O)CC[C@H](NC(=O)CCCCCCCCCCCCCCCCC(=O)O)C(=O)O)C(=O)N[C@@H](CCC(N)=O)C(=O)N[C@@H](C)C(=O)N[C@@H](CC(=O)O)C(=O)N[C@@H](Cc1ccccc1)C(=O)N[C@H](C(=O)N[C@@H](CCC(=O)O)C(=O)N[C@@H](Cc1c[nH]c2ccccc12)C(=O)N[C@@H](CC(C)C)C(=O)N[C@@H](CC(C)C)C(=O)N[C@@H](C)C(=O)N[C@@H](CCC(N)=O)C(=O)N[C@@H](CCCNC(=N)N)C(=O)NCC(=O)O)C(C)C` [Compound 162] (H-Y[Aib]EGTFISDYSIALDK[Aib]K([AEEA-AEEA-γGlu-C18 diacid])QADFVEWLLAQRG-OH), the solubility by setting is: (pH 7.4) no less than 15 mg/mL; (pH 7.4, aqueous buffer) no less than 30 mg/mL.

Compound `CC[C@H](C)[C@H](NC(=O)[C@H](CCCCN)NC(=O)[C@H](CC(=O)O)NC(=O)[C@H](CC(C)C)NC(=O)C(C)(C)NC(=O)[C@@H](NC(=O)[C@H](CO)NC(=O)[C@H](Cc1ccc(O)cc1)NC(=O)[C@H](CC(=O)O)NC(=O)[C@H](CO)NC(=O)[C@@H](NC(=O)[C@H](Cc1ccccc1)NC(=O)[C@@H](NC(=O)CNC(=O)[C@H](CCC(=O)O)NC(=O)C(C)(C)NC(=O)[C@@H](N)Cc1ccc(O)cc1)[C@@H](C)O)[C@@H](C)CC)[C@@H](C)CC)C(=O)N[C@@H](CCCCNC(=O)COCCOCCNC(=O)COCCOCCNC(=O)CC[C@H](NC(=O)CCCCCCCCCCCCCCCCC(=O)O)C(=O)O)C(=O)N[C@@H](CCC(N)=O)C(=O)N[C@@H](C)C(=O)N[C@@H](CC(=O)O)C(=O)N[C@@H](Cc1ccccc1)C(=O)N[C@H](C(=O)N[C@@H](CC(N)=O)C(=O)N[C@@H](Cc1c[nH]c2ccccc12)C(=O)N[C@@H](CC(C)C)C(=O)N[C@@H](CC(C)C)C(=O)N[C@@H](C)C(=O)N[C@@H](CCC(N)=O)C(=O)N[C@@H](CCCNC(=N)N)C(=O)NCC(=O)O)C(C)C` [Compound 172] (H-Y[Aib]EGTFISDYSI[Aib]LDKIK([AEEA-AEEA-γGlu-C18 diacid])QADFVNWLLAQRG-OH) displayed a solubility (pH 7.4) of no less than 15 mg/mL and a solubility (pH 7.4, aqueous buffer) of no less than 30 mg/mL.

In turn, `CC[C@H](C)[C@H](NC(=O)[C@H](CO)NC(=O)[C@H](Cc1ccc(O)cc1)NC(=O)[C@H](CC(=O)O)NC(=O)[C@H](CO)NC(=O)[C@@H](NC(=O)[C@H](Cc1ccccc1)NC(=O)[C@@H](NC(=O)CNC(=O)[C@H](CCC(=O)O)NC(=O)C(C)(C)NC(=O)[C@H](Cc1ccc(O)cc1)NC)[C@@H](C)O)[C@@H](C)CC)C(=O)N[C@@H](C)C(=O)N[C@@H](CC(C)C)C(=O)N[C@@H](CC(=O)O)C(=O)N[C@@H](CCCNC(=N)N)C(=O)N[C@H](C(=O)N[C@@H](Cc1c[nH]cn1)C(=O)N[C@@H](CCC(N)=O)C(=O)N[C@@H](CCCCNC(=O)COCCOCCNC(=O)COCCOCCNC(=O)CC[C@H](NC(=O)CCCCCCCCCCCCCCCCC(=O)O)C(=O)O)C(=O)N[C@@H](CC(N)=O)C(=O)N[C@@H](Cc1ccccc1)C(=O)N[C@H](C(=O)N[C@@H](CC(N)=O)C(=O)N[C@@H](Cc1c[nH]c2ccccc12)C(=O)N[C@@H](CC(C)C)C(=O)N[C@@H](CC(C)C)C(=O)N[C@@H](C)C(=O)N[C@@H](CCC(N)=O)C(=O)N[C@@H](CCCCN)C(=O)O)C(C)C)[C@@H](C)CC` [Compound 247] (H-[NMeY][Aib]EGTFISDYSIALDRIHQK([AEEA-AEEA-γGlu-C18 diacid])NFVNWLLAQK-OH; C-terminus assumed) displayed a solubility (pH 7.4, aqueous buffer) of no less than 9.9 mg/mL.

`CC[C@H](C)[C@H](NC(=O)[C@H](Cc1ccccc1)NC(=O)[C@@H](NC(=O)CNC(=O)[C@H](CCC(=O)O)NC(=O)C(C)(C)NC(=O)[C@H](Cc1ccc(O)cc1)NC)[C@@H](C)O)C(=O)N[C@@H](CO)C(=O)N[C@@H](CC(=O)O)C(=O)N[C@@H](Cc1ccc(O)cc1)C(=O)N[C@@H](CO)C(=O)N[C@H](C(=O)NC(C)(C)C(=O)N[C@@H](CCCCNC(=O)CNC(=O)CNC(=O)CNC(=O)CNC(=O)CNC(=O)CC[C@H](NC(=O)CCCCCCCCCCCCCCCC(=O)O)C(=O)O)C(=O)N[C@@H](CC(=O)O)C(=O)N[C@@H](CCCNC(=N)N)C(=O)NC(C)(C)C(=O)N[C@@H](C)C(=O)N[C@@H](CCC(N)=O)C(=O)NC(C)(C)C(=O)N[C@@H](CC(=O)O)C(=O)N[C@@H](Cc1ccccc1)C(=O)N[C@H](C(=O)N[C@@H](CC(N)=O)C(=O)N[C@@H](Cc1c[nH]c2ccccc12)C(=O)N[C@@H](CC(C)C)C(=O)N[C@@H](CC(C)C)C(=O)N[C@@H](C)C(=O)N[C@@H](CCC(N)=O)C(=O)N[C@@H](CCCNC(=N)N)C(N)=O)C(C)C)[C@@H](C)CC` [Compound 265]: for the setting “pH 7.4, aqueous buffer”, the solubility is no less than 7.5 mg/mL.

With `CC[C@H](C)[C@H](NC(=O)[C@H](CO)NC(=O)[C@H](Cc1ccc(O)cc1)NC(=O)[C@H](CC(=O)O)NC(=O)[C@H](CO)NC(=O)[C@@H](NC(=O)[C@H](Cc1ccccc1)NC(=O)[C@@H](NC(=O)CNC(=O)[C@H](CCC(=O)O)NC(=O)C(C)(C)NC(=O)[C@H](Cc1ccc(O)cc1)NC)[C@@H](C)O)[C@@H](C)CC)C(=O)N[C@@H](C)C(=O)N[C@@H](CCCCNC(=O)CNC(=O)CNC(=O)CNC(=O)CNC(=O)CNC(=O)CCCCCCCCCCCCCCCCC(=O)O)C(=O)N[C@@H](CC(=O)O)C(=O)N[C@@H](CCCNC(=N)N)C(=O)NC(C)(C)C(=O)N[C@@H](C)C(=O)N[C@@H](CCC(N)=O)C(=O)NC(C)(C)C(=O)N[C@@H](CC(N)=O)C(=O)N[C@@H](Cc1ccccc1)C(=O)N[C@H](C(=O)N[C@@H](CC(N)=O)C(=O)N[C@@H](Cc1c[nH]c2ccccc12)C(=O)N[C@@H](CC(C)C)C(=O)N[C@@H](CC(C)C)C(=O)N[C@@H](C)C(=O)N[C@@H](CCC(N)=O)C(=O)N[C@@H](CCCNC(=N)N)C(=O)O)C(C)C` [Compound 251], the solubility (pH 7.4, aqueous buffer) is no less than 7 mg/mL.

`CC[C@H](C)[C@H](NC(=O)[C@H](CO)NC(=O)[C@H](Cc1ccc(O)cc1)NC(=O)[C@H](CC(=O)O)NC(=O)[C@H](CO)NC(=O)[C@@H](NC(=O)[C@H](Cc1ccccc1)NC(=O)[C@@H](NC(=O)CNC(=O)[C@H](CCC(=O)O)NC(=O)C(C)(C)NC(=O)[C@H](Cc1ccc(O)cc1)NC)[C@@H](C)O)[C@@H](C)CC)C(=O)N[C@@H](C)C(=O)N[C@@H](CC(C)C)C(=O)N[C@@H](CC(=O)O)C(=O)N[C@@H](CCCNC(=N)N)C(=O)NC(C)(C)C(=O)N[C@@H](CCCCNC(=O)COCCOCCNC(=O)COCCOCCNC(=O)CC[C@H](NC(=O)CC[C@H](NC(=O)CCCCCCCCCCCCCCCC(=O)O)C(=O)O)C(=O)O)C(=O)N[C@@H](CCC(N)=O)C(=O)NC(C)(C)C(=O)N[C@@H](CC(N)=O)C(=O)N[C@@H](Cc1ccccc1)C(=O)N[C@H](C(=O)N[C@@H](CC(N)=O)C(=O)N[C@@H](Cc1c[nH]c2ccccc12)C(=O)N[C@@H](CC(C)C)C(=O)N[C@@H](CC(C)C)C(=O)N[C@@H](C)C(=O)N[C@@H](CCC(N)=O)C(=O)N[C@@H](CCCNC(=N)N)C(N)=O)C(C)C` [Compound 256] (H-[NMeY][Aib]EGTFISDYSIALDR[Aib]K([AEEA-AEEA-γGlu-γGlu-C17 diacid])Q[Aib]NFVNWLLAQR-NH2) gave a solubility (pH 7.4, aqueous buffer) of no less than 6 mg/mL.

`CC[C@H](C)[C@H](NC(=O)[C@H](CO)NC(=O)[C@H](Cc1ccc(O)cc1)NC(=O)[C@H](CC(=O)O)NC(=O)[C@H](CO)NC(=O)[C@@H](NC(=O)[C@H](Cc1ccccc1)NC(=O)[C@@H](NC(=O)CNC(=O)[C@H](CCC(=O)O)NC(=O)C(C)(C)NC(=O)[C@H](Cc1ccc(O)cc1)NC)[C@@H](C)O)[C@@H](C)CC)C(=O)N[C@@H](C)C(=O)N[C@@H](CC(C)C)C(=O)N[C@@H](CC(=O)O)C(=O)N[C@@H](CCCNC(=N)N)C(=O)NC(C)(C)C(=O)N[C@@H](C)C(=O)N[C@@H](CCC(N)=O)C(=O)NC(C)(C)C(=O)N[C@@H](CC(=O)O)C(=O)N[C@@H](Cc1ccccc1)C(=O)N[C@H](C(=O)N[C@@H](CC(N)=O)C(=O)N[C@@H](Cc1c[nH]c2ccccc12)C(=O)N[C@@H](CC(C)C)C(=O)N[C@@H](CC(C)C)C(=O)N[C@@H](C)C(=O)N[C@@H](CCC(N)=O)C(=O)N[C@@H](CCCCNC(=O)COCCOCCNC(=O)COCCOCCNC(=O)CC[C@H](NC(=O)CC[C@H](NC(=O)CCCCCCCCCCCCCCCCC(=O)O)C(=O)O)C(=O)O)C(=O)NCC(=O)O)C(C)C` [Compound 61] (H-[NMeY][Aib]EGTFISDYSIALDR[Aib]AQ[Aib]DFVNWLLAQK([AEEA-AEEA-γGlu-γGlu-C18 diacid])G-OH): the solubility was no less than 15 mg/mL (pH 7.4) and no less than 30 mg/mL (pH 7.4, aqueous buffer).
